Measurements published in the supplement of paper PMC10307832.

Columns and labels:
Experiment in all cases: relative viability (nuclei count vs DMSO), 5 days (fraction); higher = more cells survive
BEN = system: BEN
Procedure, shortened: (§1)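 One day after seeding in 1536-well plates, lung cancer cell lines were dosed by pin tool. Dosing was either single-drug or a fixed anchor-drug dose plus five library-drug doses (not always all listed) in √10 steps. After 5 days, nuclei were stained in one fix-and-stain step and counted on 4× images, and relative viability is the nuclei count of treated wells over that of vehicle wells, given as the median of duplicate plates.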

ChaGo-K-1 = system: ChaGo-K-1
Procedure, shortened: as §1

HCC-78 = system: HCC-78
Procedure, shortened: as §1

LC-2-ad = system: LC-2-ad
Procedure, shortened: as §1

LCLC-97TM1 = system: LCLC-97TM1
Procedure, shortened: as §1

LK-2 = system: LK-2
Procedure, shortened: as §1

LU99A = system: LU99A
Procedure, shortened: as §1

LXF-289 = system: LXF-289
Procedure, shortened: as §1

NCI-H1355 = system: NCI-H1355
Procedure, shortened: as §1

NCI-H1651 = system: NCI-H1651
Procedure, shortened: as §1

NCI-H1666 = system: NCI-H1666
Procedure, shortened: as §1

NCI-H1944 = system: NCI-H1944
Procedure, shortened: as §1

NCI-H1975 = system: NCI-H1975
Procedure, shortened: as §1

NCI-H2087 = system: NCI-H2087
Procedure, shortened: as §1

NCI-H596 = system: NCI-H596
Procedure, shortened: as §1

NCI-H838 = system: NCI-H838
Procedure, shortened: as §1

PC-3 [JPC-3] = system: PC-3 [JPC-3]
Procedure, shortened: as §1

SK-MES-1 = system: SK-MES-1
Procedure, shortened: as §1

Compound: O=c1cc(-c2cccc3c2Sc2ccccc2S3)oc(N2CCOCC2)c1 + CC1(C)CCC(c2ccc(Cl)cc2)=C(CN2CCN(c3ccc(C(=O)NS(=O)(=O)c4ccc(N[C@H](CCN5CCOCC5)CSc5ccccc5)c(S(=O)(=O)C(F)(F)F)c4)cc3)CC2)C1 [Navitoclax] (partner 0.5 µM)
- relative viability (BEN; first compound 0.08 µM): 0.0636
- relative viability (BEN; first compound 0.253 µM): 0.0609
- relative viability (BEN; first compound 0.8 µM): 0.0602
- relative viability (BEN; first compound 2.53 µM): 0.0598
- relative viability (BEN; first compound 8 µM): 0.0681
- relative viability (ChaGo-K-1; first compound 0.08 µM): 0.903
- relative viability (ChaGo-K-1; first compound 0.253 µM): 1.04
- relative viability (ChaGo-K-1; first compound 0.8 µM): 1.12
- relative viability (ChaGo-K-1; first compound 8 µM): 1.25
- relative viability (HCC-78; first compound 0.08 µM): 0.806
- relative viability (HCC-78; first compound 0.253 µM): 0.978
- relative viability (HCC-78; first compound 0.8 µM): 0.767
- relative viability (HCC-78; first compound 2.53 µM): 0.779
- relative viability (HCC-78; first compound 8 µM): 0.816
- relative viability (LC-2-ad; first compound 0.08 µM): 0.363
- relative viability (LC-2-ad; first compound 0.253 µM): 0.666
- relative viability (LC-2-ad; first compound 0.8 µM): 0.375
- relative viability (LC-2-ad; first compound 2.53 µM): 0.421
- relative viability (LC-2-ad; first compound 8 µM): 0.403
- relative viability (LCLC-97TM1; first compound 0.08 µM): 0.425
- relative viability (LCLC-97TM1; first compound 0.253 µM): 0.597
- relative viability (LCLC-97TM1; first compound 0.8 µM): 0.374
- relative viability (LCLC-97TM1; first compound 2.53 µM): 0.329
- relative viability (LCLC-97TM1; first compound 8 µM): 0.372
- relative viability (LK-2; first compound 0.08 µM): 0.861
- relative viability (LK-2; first compound 0.253 µM): 1.03
- relative viability (LK-2; first compound 0.8 µM): 0.992
- relative viability (LK-2; first compound 2.53 µM): 0.808
- relative viability (LK-2; first compound 8 µM): 1.43
- relative viability (LU99A; first compound 0.08 µM): 0.809
- relative viability (LU99A; first compound 0.253 µM): 0.918
- relative viability (LU99A; first compound 0.8 µM): 0.84
- relative viability (LU99A; first compound 2.53 µM): 0.786
- relative viability (LU99A; first compound 8 µM): 0.958
- relative viability (LXF-289; first compound 0.08 µM): 0.996
- relative viability (LXF-289; first compound 0.253 µM): 1.06
- relative viability (LXF-289; first compound 0.8 µM): 1.03
- relative viability (LXF-289; first compound 2.53 µM): 0.951
- relative viability (LXF-289; first compound 8 µM): 1
- relative viability (NCI-H1355; first compound 0.08 µM): 0.982
- relative viability (NCI-H1355; first compound 0.253 µM): 1.06
- relative viability (NCI-H1355; first compound 0.8 µM): 0.847
- relative viability (NCI-H1355; first compound 2.53 µM): 0.942
- relative viability (NCI-H1355; first compound 8 µM): 0.685
- relative viability (NCI-H1651; first compound 0.08 µM): 1.04
- relative viability (NCI-H1651; first compound 0.253 µM): 1.42
- relative viability (NCI-H1651; first compound 0.8 µM): 0.852
- relative viability (NCI-H1651; first compound 2.53 µM): 0.994
- relative viability (NCI-H1651; first compound 8 µM): 1.14
- relative viability (NCI-H1666; first compound 0.08 µM): 0.988
- relative viability (NCI-H1666; first compound 0.253 µM): 0.976
- relative viability (NCI-H1666; first compound 0.8 µM): 0.952
- relative viability (NCI-H1666; first compound 2.53 µM): 0.868
- relative viability (NCI-H1666; first compound 8 µM): 0.799
- relative viability (NCI-H1944; first compound 0.08 µM): 1
- relative viability (NCI-H1944; first compound 0.253 µM): 1.11
- relative viability (NCI-H1944; first compound 0.8 µM): 1.06
- relative viability (NCI-H1944; first compound 8 µM): 1.16
- relative viability (NCI-H1975; first compound 0.08 µM): 1.2
- relative viability (NCI-H1975; first compound 0.253 µM): 1.4
- relative viability (NCI-H1975; first compound 0.8 µM): 1.35
- relative viability (NCI-H1975; first compound 2.53 µM): 1.16
- relative viability (NCI-H1975; first compound 8 µM): 0.997
- relative viability (NCI-H2087; first compound 0.08 µM): 0.995
- relative viability (NCI-H2087; first compound 0.253 µM): 1.3
- relative viability (NCI-H2087; first compound 0.8 µM): 1.07
- relative viability (NCI-H2087; first compound 2.53 µM): 0.955
- relative viability (NCI-H2087; first compound 8 µM): 1.21
- relative viability (NCI-H596; first compound 0.08 µM): 0.843
- relative viability (NCI-H596; first compound 0.253 µM): 1.3
- relative viability (NCI-H596; first compound 0.8 µM): 1.09
- relative viability (NCI-H596; first compound 2.53 µM): 1.09
- relative viability (NCI-H596; first compound 8 µM): 1.14
- relative viability (NCI-H838; first compound 0.08 µM): 1.11
- relative viability (NCI-H838; first compound 0.253 µM): 1.64
- relative viability (NCI-H838; first compound 0.8 µM): 0.944
- relative viability (NCI-H838; first compound 2.53 µM): 1.02
- relative viability (NCI-H838; first compound 8 µM): 1.09
- relative viability (PC-3 [JPC-3]; first compound 0.08 µM): 0.836
- relative viability (PC-3 [JPC-3]; first compound 0.253 µM): 0.779
- relative viability (PC-3 [JPC-3]; first compound 0.8 µM): 0.897
- relative viability (PC-3 [JPC-3]; first compound 2.53 µM): 0.767
- relative viability (PC-3 [JPC-3]; first compound 8 µM): 0.992
- relative viability (SK-MES-1; first compound 0.08 µM): 1.1
- relative viability (SK-MES-1; first compound 0.253 µM): 1.54
- relative viability (SK-MES-1; first compound 0.8 µM): 1.2
- relative viability (SK-MES-1; first compound 2.53 µM): 1.17
- relative viability (SK-MES-1; first compound 8 µM): 1.24
